Assay results from the NIST ThermoML archive (doi:10.1021/acs.jced.5b00838).

Experiments:
[1] = 101.33 kPa, Liquid, Vibrating tube method
[2] = excess molar enthalpy (molar enthalpy of mixing); xn = mol fraction of the nth substance listed; details: 100 kPa, Liquid, isothermal titration calorimetry

CCCCCOCCC [1-propoxypentane]
[1]
Details | mass density [kg/m3]
288.15 K | 773.45
293.15 K | 769.12
298.15 K | 764.78
303.15 K | 760.4
308.15 K | 756.01
313.15 K | 751.6
318.15 K | 747.19
323.15 K | 742.73

CC#N [acetonitrile]
[1]
Details | mass density [kg/m3]
298.15 K | 776.51
303.15 K | 771.06
308.15 K | 765.59
313.15 K | 760.1
318.15 K | 754.56
323.15 K | 748.99

CCCOCCC(C)C [3-methyl-1-propoxybutane]
[1]
Details | mass density [kg/m3]
288.15 K | 768.79
293.15 K | 764.43
298.15 K | 760.04
303.15 K | 755.62
308.15 K | 751.22
313.15 K | 746.78
318.15 K | 742.31
323.15 K | 737.84

CCCCOCC(C)C [butyl isobutyl ether] + CC#N
[2], 298.15 K
Details | excess molar enthalpy [kJ/mol]
x2 = 0.0314 | 0.19
x2 = 0.061 | 0.351
x2 = 0.0887 | 0.485
x2 = 0.1149 | 0.6
x2 = 0.1396 | 0.697
x2 = 0.1851 | 0.854
x2 = 0.2261 | 0.975
x2 = 0.2631 | 1.07
x2 = 0.2967 | 1.14
x2 = 0.3275 | 1.2
x2 = 0.3815 | 1.26
x2 = 0.4274 | 1.3
x2 = 0.4671 | 1.32
x2 = 0.5097 | 1.33
x2 = 0.5459 | 1.32
x2 = 0.5772 | 1.3
x2 = 0.6045 | 1.29
x2 = 0.6329 | 1.26
x2 = 0.6575 | 1.23
x2 = 0.6789 | 1.21
x2 = 0.7009 | 1.18
x2 = 0.7183 | 1.15
x2 = 0.72 | 1.15
x2 = 0.7368 | 1.12
x2 = 0.7392 | 1.12
x2 = 0.7517 | 1.09
x2 = 0.7613 | 1.07
x2 = 0.765 | 1.06
x2 = 0.7847 | 1.01
x2 = 0.8097 | 0.947
x2 = 0.8362 | 0.866
x2 = 0.853 | 0.807
x2 = 0.8705 | 0.74
x2 = 0.8887 | 0.662
x2 = 0.9077 | 0.573
x2 = 0.9275 | 0.469
x2 = 0.9411 | 0.391
x2 = 0.9552 | 0.305
x2 = 0.9697 | 0.21
x2 = 0.9846 | 0.106

CCCOCCC(C)C [3-methyl-1-propoxybutane] + CC#N
[2]
Details | excess molar enthalpy [kJ/mol]
298.15 K, x2 = 0.0312 | 0.146
298.15 K, x2 = 0.0606 | 0.29
298.15 K, x2 = 0.0882 | 0.408
298.15 K, x2 = 0.1142 | 0.509
298.15 K, x2 = 0.1388 | 0.602
298.15 K, x2 = 0.1841 | 0.746
298.15 K, x2 = 0.2249 | 0.854
298.15 K, x2 = 0.2618 | 0.938
298.15 K, x2 = 0.3259 | 1.06
298.15 K, x2 = 0.3798 | 1.13
298.15 K, x2 = 0.4258 | 1.17
298.15 K, x2 = 0.4654 | 1.2
298.15 K, x2 = 0.5079 | 1.21
298.15 K, x2 = 0.5442 | 1.21
298.15 K, x2 = 0.5756 | 1.2
298.15 K, x2 = 0.6028 | 1.19
298.15 K, x2 = 0.6559 | 1.15
298.15 K, x2 = 0.6774 | 1.12
298.15 K, x2 = 0.6994 | 1.1
298.15 K, x2 = 0.7186 | 1.07
298.15 K, x2 = 0.7355 | 1.04
298.15 K, x2 = 0.7504 | 1.01
298.15 K, x2 = 0.7638 | 0.981
308.15 K, x2 = 0.0302 | 0.173
308.15 K, x2 = 0.0586 | 0.33
308.15 K, x2 = 0.0854 | 0.46
308.15 K, x2 = 0.1107 | 0.57
308.15 K, x2 = 0.1347 | 0.662
308.15 K, x2 = 0.1789 | 0.815
308.15 K, x2 = 0.2188 | 0.933
308.15 K, x2 = 0.2551 | 1.02
308.15 K, x2 = 0.2881 | 1.09
308.15 K, x2 = 0.3183 | 1.15
308.15 K, x2 = 0.3716 | 1.23
308.15 K, x2 = 0.4172 | 1.27
308.15 K, x2 = 0.4567 | 1.3
308.15 K, x2 = 0.4992 | 1.31
308.15 K, x2 = 0.5356 | 1.31
308.15 K, x2 = 0.567 | 1.3
308.15 K, x2 = 0.5944 | 1.28
308.15 K, x2 = 0.6231 | 1.26
308.15 K, x2 = 0.648 | 1.24
308.15 K, x2 = 0.6698 | 1.21
308.15 K, x2 = 0.692 | 1.18
308.15 K, x2 = 0.7115 | 1.15
308.15 K, x2 = 0.7146 | 1.13
308.15 K, x2 = 0.7286 | 1.11
308.15 K, x2 = 0.7356 | 1.09
308.15 K, x2 = 0.7438 | 1.08
308.15 K, x2 = 0.7574 | 1.05
308.15 K, x2 = 0.7579 | 1.04
308.15 K, x2 = 0.7816 | 0.986
308.15 K, x2 = 0.8068 | 0.918
308.15 K, x2 = 0.8337 | 0.835
308.15 K, x2 = 0.8507 | 0.776
308.15 K, x2 = 0.8684 | 0.71
308.15 K, x2 = 0.8869 | 0.634
308.15 K, x2 = 0.9061 | 0.546
308.15 K, x2 = 0.9263 | 0.446
308.15 K, x2 = 0.9401 | 0.371
308.15 K, x2 = 0.9544 | 0.288
308.15 K, x2 = 0.9691 | 0.198
308.15 K, x2 = 0.9843 | 0.0978

CCCCCCOCC [1-ethoxyhexane]
[1]
Details | mass density [kg/m3]
288.15 K | 775.8
293.15 K | 771.47
298.15 K | 767.15
303.15 K | 762.8
308.15 K | 758.45
313.15 K | 754.06
318.15 K | 749.66
323.15 K | 745.27

CCCCOCC(C)C [butyl isobutyl ether]
[1]
Details | mass density [kg/m3]
288.15 K | 764.07
293.15 K | 759.72
298.15 K | 755.31
303.15 K | 750.87
308.15 K | 746.45
313.15 K | 741.98
318.15 K | 737.58
323.15 K | 732.99

CCCCCCCOC [1-methoxyheptane]
[1]
Details | mass density [kg/m3]
288.15 K | 783.89
293.15 K | 779.71
298.15 K | 775.52
303.15 K | 771.31
308.15 K | 767.09
313.15 K | 762.85
318.15 K | 758.57
323.15 K | 754.3
